Assays:
MCF7 = assay: Cytotoxicity against human MCF7 cells after 72 hrs by MTS/PMS assay; assay type: functional, cell-based; settings: MCF7, 72 h
[1] = Lipophilicity, log P of the compound; assay type: physicochemical; settings: octanol/water
[2] = target: PI3-kinase p110-alpha/p85-alpha (Homo sapiens, UniProt P42336); assay: Inhibition of human recombinant P110alpha/p85alpha using phosphatidyl inositol as substrate after 1 hr by ADP-Glo Kinase assay; assay type: protein-complex assay
[3] = Inhibition of PI3K

PI3-kinase p110-alpha/p85-alpha, sequence (P27986 whole entry): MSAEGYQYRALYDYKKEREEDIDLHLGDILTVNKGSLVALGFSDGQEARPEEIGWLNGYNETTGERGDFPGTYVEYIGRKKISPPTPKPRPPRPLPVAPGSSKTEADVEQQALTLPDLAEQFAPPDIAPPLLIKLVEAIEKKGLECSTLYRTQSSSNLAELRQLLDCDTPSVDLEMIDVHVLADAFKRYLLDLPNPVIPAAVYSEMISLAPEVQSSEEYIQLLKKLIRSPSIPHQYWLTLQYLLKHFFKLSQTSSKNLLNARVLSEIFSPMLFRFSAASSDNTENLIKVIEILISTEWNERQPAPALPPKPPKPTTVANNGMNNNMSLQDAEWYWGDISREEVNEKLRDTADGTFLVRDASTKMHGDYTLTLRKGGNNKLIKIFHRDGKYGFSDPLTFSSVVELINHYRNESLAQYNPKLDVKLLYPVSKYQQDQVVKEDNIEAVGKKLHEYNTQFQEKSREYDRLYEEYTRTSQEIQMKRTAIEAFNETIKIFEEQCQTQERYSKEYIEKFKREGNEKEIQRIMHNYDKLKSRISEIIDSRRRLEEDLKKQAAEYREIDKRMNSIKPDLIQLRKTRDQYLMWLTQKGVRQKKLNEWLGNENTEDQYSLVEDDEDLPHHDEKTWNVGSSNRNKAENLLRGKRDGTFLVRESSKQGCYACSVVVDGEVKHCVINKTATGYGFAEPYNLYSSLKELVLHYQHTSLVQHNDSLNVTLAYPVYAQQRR
PI3-kinase p110-alpha/p85-alpha, sequence (P42336 whole entry): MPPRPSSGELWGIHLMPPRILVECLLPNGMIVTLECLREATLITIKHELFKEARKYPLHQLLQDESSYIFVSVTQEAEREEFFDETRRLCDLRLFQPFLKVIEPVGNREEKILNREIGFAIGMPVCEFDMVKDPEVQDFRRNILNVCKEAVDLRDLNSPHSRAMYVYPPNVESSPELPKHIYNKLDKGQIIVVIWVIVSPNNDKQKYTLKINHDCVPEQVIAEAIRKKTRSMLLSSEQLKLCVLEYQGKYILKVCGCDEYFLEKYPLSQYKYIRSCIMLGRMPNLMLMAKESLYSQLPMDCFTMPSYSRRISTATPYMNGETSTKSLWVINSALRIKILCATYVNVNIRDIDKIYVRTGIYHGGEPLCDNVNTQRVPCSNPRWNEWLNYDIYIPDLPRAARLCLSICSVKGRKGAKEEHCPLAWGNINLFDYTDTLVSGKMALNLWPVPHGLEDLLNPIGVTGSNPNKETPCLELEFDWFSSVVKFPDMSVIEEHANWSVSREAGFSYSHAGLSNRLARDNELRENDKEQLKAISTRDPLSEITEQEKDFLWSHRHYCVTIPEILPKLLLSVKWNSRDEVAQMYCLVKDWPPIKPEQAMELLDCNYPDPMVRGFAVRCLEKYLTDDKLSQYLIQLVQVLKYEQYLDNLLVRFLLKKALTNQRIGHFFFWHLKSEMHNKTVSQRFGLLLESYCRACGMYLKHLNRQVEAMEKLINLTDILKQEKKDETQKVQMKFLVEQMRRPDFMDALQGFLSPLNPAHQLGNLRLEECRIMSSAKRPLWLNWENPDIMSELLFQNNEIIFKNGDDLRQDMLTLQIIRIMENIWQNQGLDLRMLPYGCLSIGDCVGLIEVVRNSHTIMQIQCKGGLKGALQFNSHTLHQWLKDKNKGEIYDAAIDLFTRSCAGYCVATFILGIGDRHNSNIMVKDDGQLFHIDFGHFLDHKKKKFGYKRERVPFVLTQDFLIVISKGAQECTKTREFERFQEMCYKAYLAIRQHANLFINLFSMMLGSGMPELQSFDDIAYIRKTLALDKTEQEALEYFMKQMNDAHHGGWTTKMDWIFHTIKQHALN

Structure (SMILES)	IC50 (MCF7) [nM]	logP [1]	IC50 [2] [nM]	IC50 [3] [nM]
C[C@]12CCC(=O)c3coc(c31)C(=O)[C@@H]1[C@@H]2CC[C@]2(C)C(=O)CC[C@@H]12	22900	2.65	339	–
C=CCN/C=C1/C(=O)CC[C@@]2(C)C1=C(O)C(=O)[C@@H]1[C@@H]2CC[C@]2(C)C(=O)CC[C@@H]12	37700	–	271	–
C[C@]12CCC(=O)c3coc(c31)C(=O)C[C@@H]2O (racemic)	> 100000	0.58	178	–
CO[C@@H]1C(=O)c2coc3c2[C@@](C)(c2ccc4c(c2C3=O)CCC4=O)[C@@H]1O [VIRIDIN]	–	–	–	2
COC[C@H]1OC(=O)c2coc3c2[C@@]1(C)C1=C(C3=O)[C@@H]2CCC(=O)[C@@]2(C)C[C@H]1OC(C)=O [WORTMANNIN]	> 100000	–	–	2

From ChEMBL document CHEMBL2157974, “Viridin analogs derived from steroidal building blocks” (Bioorg Med Chem Lett, 2012)
